From patent US5786386A, “Antibacterial and fungicidal agent” (Takasago International Corporation, priority 1995, dated 1998)

Assays:
Assay type in all cases: in vivo
[1] = tested on: Hartley guinea pigs; assay: Test Example 3 (safety test), sensitization, maximization method; conditions: 1 wt % solution in acetone; induction at 10 wt %; female guinea pigs
Method: Test Example 3 (safety test) Method Five (5) or ten (10) Hartley guinea pigs (female, body weight: 350-400 g) are used. A 1 wt % solution of each test compound in acetone was prepared, and the solution was tested with respect to its sensitizing potential, primary stimulation to the skin, and photo-toxicity. As test compounds, three compounds, i.e., compound Nos. 1, 10, and 14 in Table 1, were used. The sensitization test was performed in accordance with the maximization method proposed by Magnusson [Magnusson, B and Kligman, A.M.,; "The identification of contact allergens by animal assay. The guinea pig maximization test" (J. Inv. Derm., 52, p268-276 (1969))]. The induction of sensitization was performed at a concentration of 10 wt %.

[2] = tested on: Hartley guinea pigs; assay: Test Example 3 (safety test), primary stimulation to the skin; conditions: 1 wt % solution in acetone; female guinea pigs
Method: Test Example 3 (safety test) Method Five (5) or ten (10) Hartley guinea pigs (female, body weight: 350-400 g) are used. A 1 wt % solution of each test compound in acetone was prepared, and the solution was tested with respect to its sensitizing potential, primary stimulation to the skin, and photo-toxicity. As test compounds, three compounds, i.e., compound Nos. 1, 10, and 14 in Table 1, were used.

[3] = tested on: Hartley guinea pigs; assay: Test Example 3 (safety test), photo-toxicity; conditions: 1 wt % solution in acetone; light source FL-40S.BLB (300-400 nm); female guinea pigs
Method: Test Example 3 (safety test)
Five (5) or ten (10) Hartley guinea pigs (female, body weight: 350-400 g) are used. A 1 wt % solution of each test compound in acetone was prepared, and the solution was tested with respect to its sensitizing potential, primary stimulation to the skin, and photo-toxicity.
As test compounds, three compounds, i.e., compound Nos. 1, 10, and 14 in Table 1, were used.
The positive control compound used for the photo-toxicity was an ethanol solution containing 100 ppm of 8-methoxypsoralen (product of Aldrich). The light source used was FL-40S.BLB (300-400 nm; manufactured by Toshiba).

SMILES: CCCCCCCCCCCCNCc1ccc2c(c1)OCO2 [Compound No. 1]
- Sensitization [1]: 0/10
- Primary stimulation [2]: 0/5
- Photo-toxicity [3]: 0/5

SMILES: CCCCCCCCCCCCN(C)Cc1cc(OC)c(OC)cc1OC [Compound No. 14]
- Sensitization [1]: 0/10
- Primary stimulation [2]: 0/5
- Photo-toxicity [3]: 0/5

SMILES: CCCCCCCCCCCCNCc1ccc(OC)c(O)c1 [Compound No. 10, N-lauryl-3-hydroxy-4-methoxybenzylamine]
- Sensitization [1]: 0/10
- Primary stimulation [2]: 0/5
- Photo-toxicity [3]: 0/5
